Results on eleven compounds are retold here after ChEMBL document CHEMBL4033731, “Structural development of 1,2,3,4-tetrahydroisoquinoline-type positive allosteric modulators of prostacyclin receptor (IPPAMs) to improve metabolic stability, and investigation of metabolic fate” (Bioorg Med Chem Lett, 2017).

Active and inactive are the calls of the source. The calls are words filed in the database; no cut-off is given here.

The target in series [1] is Prostacyclin receptor (Homo sapiens) (UniProt P43119). Kind of series: Positive allosteric modulator activity at human prostacyclin receptor expressed in CHO-K1 cells assessed as compound concentration needed to shift agonist concentration response curve leftward by 2-fold by measuring CAMP accumulation. In kind it is cell-based.
Sequence of Prostacyclin receptor (Homo sapiens) (P43119 whole entry): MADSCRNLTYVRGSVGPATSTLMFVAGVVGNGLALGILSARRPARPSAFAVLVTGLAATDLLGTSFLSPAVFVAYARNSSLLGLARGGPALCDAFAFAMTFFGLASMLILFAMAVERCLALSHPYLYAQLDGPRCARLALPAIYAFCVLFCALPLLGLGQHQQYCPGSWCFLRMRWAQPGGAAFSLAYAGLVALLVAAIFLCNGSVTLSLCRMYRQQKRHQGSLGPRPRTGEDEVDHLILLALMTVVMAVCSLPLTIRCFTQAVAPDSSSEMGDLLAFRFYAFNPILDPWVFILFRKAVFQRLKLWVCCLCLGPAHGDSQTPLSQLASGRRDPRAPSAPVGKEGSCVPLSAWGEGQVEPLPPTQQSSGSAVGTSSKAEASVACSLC
Series [2] is described as follows: Half life in human hepatic microsomes at 0.1 uM by HPLC-MS/MS method. As to conditions: liver microsomes. In kind it is ADME, Microsome. (In general: Liver microsomes are vesicles of endoplasmic reticulum, rich in cytochrome P450 enzymes.)
Series [3] in a line: Drug metabolism in human hepatic microsomes assessed as 2-((1-tert-butyl-1H-tetrazol-5-yl)(3,4-dihydroisoquinolin-2(1H)-yl)methyl)-4-fluorophenol formation at 10 uM incubated for 90 mins at 37 degC by HPLC-MS/MS method relative to control. The following applies: 1.5 h. The format is ADME, Liver, Microsome.
Series [4] can be described thus: Drug metabolism in human hepatic microsomes assessed as 2-((3,4-dihydroisoquinolin-2(1H)-yl)(1-(1-hydroxy-2-methylpropan-2-yl)-1H-tetrazol-5-yl)methyl)-6-fluorophenol formation at 10 uM incubated for 90 mins at 37 degC by HPLC-MS/MS method relative to control. The format is ADME, Liver, Microsome. As to conditions: 1.5 h.
Series [5] is described as follows: Drug metabolism in human hepatic microsomes assessed as peak area for parent compound at 10 uM incubated for 90 mins at 37 degC by HPLC-MS/MS method relative to control. The format is ADME, Microsome. As to conditions: liver microsomes, read-out: Stability.
The nature of series [6]: Drug level in human hepatic microsomes treated with 10 uM of 2-((1-tert-butyl-1H-tetrazol-5-yl)(3,4-dihydroisoquinolin-2(1H)-yl)methyl)-6-fluorophenol assessed as drug formation at 10 uM incubated for 90 mins at 37 degC by HPLC-MS/MS method relative to control. The format is ADME, Liver, Microsome. The following applies: 1.5 h.
In series [7] the target is Prostacyclin receptor (Homo sapiens) (UniProt P43119). Kind of series: Positive allosteric modulator activity at human prostacyclin receptor expressed in CHO-K1 cells assessed as compound concentration needed to shift agonist concentration response curve leftward by 2-fold by measuring CAMP accumulation at 100 uM. The format is cell-based.

As a reminder, the half-life is how long it takes for the measured level to halve. Low readings indicate rapid decline, high ones slow decline.

With `COc1ccccc1C(c1nnnn1C(C)(C)C)N1CCC2CCCCC2C1` (centres undefined), in series [1], the Activity was found to be 6.2 µM. Also, the half-life at 0.1 µM in series [2] is 3 min.
`CC(C)(C)n1nnnc1C(c1cc(F)ccc1O)N1CCc2ccccc2C1` (centres undefined): the Activity in series [1] was 12 µM. Also, the half-life at 0.1 µM in series [2] was 5 min.
In the case of `CC(C)(C)n1nnnc1C(c1cccc(F)c1O)N1CCc2ccccc2C1` (centres undefined), the Drug metabolism result in series [3] and in series [4] was “Metabolite_Detected” throughout. The Activity in series [1] is 8.2 µM. Further, the remaining at 1.5 h, 10 µM in series [5] is 1.04%. For the same compound, in series [2], the half-life at 0.1 µM turned out to be 21 min.
Regarding `CC(C)(C)n1nnnc1C(c1cccc(O)c1O)N1CCc2ccccc2C1` (centres undefined), the Drug metabolism result in series [6] is “Metabolite_Detected”.
Regarding `COc1ccccc1C(c1nnnn1C(C)(C)C)N1CCc2ccccc2C1` (centres undefined), the Activity in series [1] came to 4.3 µM. This compound also gave a half-life at 0.1 µM in series [2] of 8 min.
Regarding `CC(C)(C)n1nnnc1C(c1ccccc1O)N1CCc2ccccc2C1` (centres undefined), the Activity in series [1] was 1.4 µM. In addition, in series [2], the half-life at 0.1 µM was 7 min.
In the case of `COc1ccccc1C(c1nnnn1C(C)(C)C)N1CCc2ccc(F)cc2C1` (centres undefined), the Activity in series [1] was 15.2 µM. In series [2], this compound gave a half-life at 0.1 µM of 6 min.
On to `CC(C)(C)n1nnnc1C(c1ccccc1)N1CCc2ccccc2C1` (centres undefined), for which, in series [1], the Activity was 6.9 µM. In series [2], this compound came in with a half-life at 0.1 µM of 6 min.
`CC(C)(CO)n1nnnc1C(c1cccc(F)c1O)N1CCc2ccccc2C1` (centres undefined): the Drug metabolism entry in series [6] is “Metabolite_Detected”.
On to `CC(C)(C)n1nnnc1C(c1ccccc1F)N1CCc2ccccc2C1` (centres undefined), for which the Activity in series [1] is 4.7 µM. In addition, in series [2], the half-life at 0.1 µM came to 3 min.
Take `CC(C)(C)NC(=O)C(c1ccccc1)N1CCc2ccccc2C1` (centres undefined): the outcome in series [1] and in series [7] was inactive. In series [2], this compound displayed a half-life at 0.1 µM of 6 min.
